Columns and labels:
[1] = UV Tm analysis of unimolecular PNA hairpins (9 bp stem duplex); type: physicochemical; conditions: for cooperativity of sigmoidal melting transition (normalized absorbance vs. temperature): each probe at [1], FIG. 11
Protocol: The five Tm Samples of a dilution series of a particular unimolecular probe to be analyzed were simultaneously examined using a Cary 100 Bio UV-Visible Spectrophotometer (Varian Instruments) equipped with a 6×6 thermostatable multicell block running Win UV Bio application software package. To a 10×10 UV cell (Starna Cells, P/N 21-Q-10) was added a 7.2 mm stir bar and the 2.5 mL of each sample of the dilution series. The stirring accessory was used during all analysis. All samples were thermally denatured and reannealed prior to data collection by having the instrument rapidly ramp the temperature to a point above the melting temperature and then holding that temperature for 5-10 minutes before returning to the starting temperature. The temperature range over which data was collected was varied in response to the expected Tm which was roughly determined during the premelt and prereannealing step. Regardless of the temperature range, the temperature ramp rate for both melting “M” and reannealing “R” was always 0.5°C./min. The absorbance (260 nm, averaged over a 3 second collection) was plotted vs. the temperature of the multicell block.
After the Tm analysis was performed in Tm Buffer, to each cell was added 0.5 μL of 5M MgCl2 to thereby prepare a sample containing 1 mM MgCl2. The dilution effect was considered to be negligible. The Tm analysis was then performed again to determine whether the presence of MgCl2 had any; effect on the Tm of the unimolecular probe.
After the Tm analysis was performed in Tm Buffer and 1 mM MgCl2, to each cell was added 42 μL of saturated NaCl (approximately 6.11 M/L). The dilution effect was again considered to be negligible. The Tm analysis was then performed again to determine whether the presence of approximately 100 mM NaCl had any effect on the Tm of the unimolecular probe.

[2] = Solubility of labeled PNA oligomer in aqueous buffer
[3] = [1] approx. 7.5 μM, Buf, Mg & Na: Tm Buffer, 1 mM MgCl2 and 100 mM NaCl
[4] = [1] approx. 7.5 μM, Buf, Mg: Tm Buffer and 1 mM MgCl2
[5] = [2] approx. 3.75 μM, Buf, Mg & Na: Tm Buffer, 1 mM MgCl2 and 100 mM NaCl
[6] = [2] approx. 3.75 μM, Buf, Mg: Tm Buffer and 1 mM MgCl2
[7] = [2] approx. 3.75 μM, Buf: Tm Buffer
[8] = [3] approx. 1.87 μM, Buf, Mg & Na: Tm Buffer, 1 mM MgCl2 and 100 mM NaCl
[9] = [3] approx. 1.87 μM, Buf, Mg: Tm Buffer and 1 mM MgCl2
[10] = [3] approx. 1.87 μM, Buf: Tm Buffer
[11] = [4] approx. 0.94 μM, Buf, Mg & Na: Tm Buffer, 1 mM MgCl2 and 100 mM NaCl
[12] = [4] approx. 0.94 μM, Buf, Mg: Tm Buffer and 1 mM MgCl2
[13] = [4] approx. 0.94 μM, Buf: Tm Buffer
[14] = [5] approx. 0.468 μM, Buf, Mg & Na: Tm Buffer, 1 mM MgCl2 and 100 mM NaCl
[15] = [5] approx. 0.468 μM, Buf, Mg: Tm Buffer and 1 mM MgCl2
[16] = [5] approx. 0.468 μM, Buf: Tm Buffer

Tm, melting M [1, 3] [°C]	Tm, reannealing R [1, 3] [°C]	Tm, melting M [1, 4] [°C]	Tm, reannealing R [1, 4] [°C]	Tm, melting M [1, 5] [°C]	Tm, melting M [1, 6] [°C]	Tm, reannealing R [1, 6] [°C]	Tm, melting M [1, 7] [°C]	Tm, reannealing R [1, 7] [°C]	Tm, melting M [1, 8] [°C]	Tm, melting M [1, 9] [°C]	Tm, reannealing R [1, 9] [°C]	Tm, melting M [1, 10] [°C]	Tm, reannealing R [1, 10] [°C]	Tm, melting M [1, 11] [°C]	Tm, reannealing R [1, 11] [°C]	Tm, melting M [1, 12] [°C]	Tm, melting M [1, 13] [°C]	Tm, reannealing R [1, 13] [°C]	Tm, melting M [1, 14] [°C]	Substance	other results
82.1	82.3	81.6	81.3	82.1	81.6	81.3	82.1	81.5	82.5	82.1	81.4	82.1	81.5	82.0	82.0	82.0	82.5	81.1	84.0	H-OEE-ATA-TAT-TGG-CTG-ATC-CAA-TAT-AT-EEK-NH2 [P4N]	Tm, reannealing R [1, 5]: 82.3 °C; Tm, reannealing R [1, 14]: 81.6 °C; Tm, melting M [1, 15]: 82.0 °C; Tm, reannealing R [1, 15]: 81.1 °C; Tm, melting M [1, 16]: 82.0 °C; Tm, reannealing R [1, 16]: 80.1 °C; cooperativity of sigmoidal melting transition (normalized absorbance vs. temperature) [1]: only a slightly less cooperative a transition as compared with probe P3N
80.6	80.4	80.6	80.3	81.5	81.1	80.4	81.1	81.0	81.0	81.1	80.4	82.0	81.0	81.5	80.5	80.5	81.5	81.5	82.1	H-ATA-TAT-TGG-CTG-ATC-CAA-TAT-AT-KK-NH2 [PNAD, reference compound]	Tm, reannealing R [1, 8]: 81.4 °C; Tm, reannealing R [1, 12]: 81.0 °C; Tm, reannealing R [1, 14]: 80.6 °C; Tm, melting M [1, 15]: 80.5 °C; Tm, reannealing R [1, 15]: 80.5 °C; Tm, melting M [1, 16]: 81.5 °C; Tm, reannealing R [1, 16]: 81.1 °C; cooperativity of sigmoidal melting transition (normalized absorbance vs. temperature) [1]: least cooperative sigmoidal transition
83.1	82.9	83.1	82.4	83.1	83.1	81.9	82.5	82.4	83.5	83.0	82.5	83.0	82.4	83.5	83.0	83.0	83.0	82.5	83.5	H-OEE-ATA-TAT-TGG-OO-CCA-ATA-TAT-EEK-NH2 [P3N]	Tm, reannealing R [1, 5]: 81.4 °C; Tm, reannealing R [1, 8]: 82.9 °C; Tm, reannealing R [1, 12]: 83.1 °C; Tm, reannealing R [1, 14]: 83.1 °C; Tm, melting M [1, 15]: 83.0 °C; Tm, reannealing R [1, 15]: 82.6 °C; Tm, melting M [1, 16]: 83.0 °C; Tm, reannealing R [1, 16]: 82.6 °C; cooperativity of sigmoidal melting transition (normalized absorbance vs. temperature) [1]: most cooperative sigmoidal transition
82.6	81.8	81.6	81.0	82.6	81.6	81.5	81.6	81.4	82.6	82.0	81.5	82.1	81.5	82.5	82.5	82.0	82.0	81.5	83.0	Flu-OEE-ATA-TAT-TGG-CTG-ATC-CAA-TAT-AT-EE-K(dabcyl)-NH2 [P4]	Tm, reannealing R [1, 5]: 82.4 °C; Tm, reannealing R [1, 8]: 82.5 °C; Tm, reannealing R [1, 12]: 81.1 °C; Tm, reannealing R [1, 14]: 82.1 °C; Tm, melting M [1, 15]: 82.0 °C; Tm, reannealing R [1, 15]: 81.6 °C; Tm, melting M [1, 16]: 81.5 °C; Tm, reannealing R [1, 16]: 81.1 °C; concentration up to which completely soluble [2]: ≥ 7.5 μM/L
